Source: patent publication US7582649B2, “Hydroxy alkyl substituted 1,3,8-triazaspiro[4.5]decan-4-one derivatives useful for the treatment of ORL-1 receptor mediated disorders” (Janssen Pharmaceutica, NV, priority 2002, dated 2009)

Experiments:
[1] = molecular target: mu opioid receptor (Homo sapiens, UniProt P35372); assay: Filtration binding assay: mu opioid receptor
[2] = molecular target: kappa opioid receptor (Homo sapiens, UniProt P41145); assay: Filtration binding assay: kappa opioid receptor
Sequence of kappa opioid receptor (P41145 whole entry): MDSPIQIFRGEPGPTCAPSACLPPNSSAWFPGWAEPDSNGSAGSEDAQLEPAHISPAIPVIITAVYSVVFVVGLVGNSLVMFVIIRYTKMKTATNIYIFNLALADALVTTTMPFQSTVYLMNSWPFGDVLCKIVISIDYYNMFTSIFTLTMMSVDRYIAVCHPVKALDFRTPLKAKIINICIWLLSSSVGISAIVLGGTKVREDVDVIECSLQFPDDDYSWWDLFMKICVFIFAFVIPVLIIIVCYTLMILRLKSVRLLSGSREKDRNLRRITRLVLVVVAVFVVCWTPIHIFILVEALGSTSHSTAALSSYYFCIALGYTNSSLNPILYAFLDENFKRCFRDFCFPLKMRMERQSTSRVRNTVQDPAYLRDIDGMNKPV

Sequence of mu opioid receptor (P35372 whole entry): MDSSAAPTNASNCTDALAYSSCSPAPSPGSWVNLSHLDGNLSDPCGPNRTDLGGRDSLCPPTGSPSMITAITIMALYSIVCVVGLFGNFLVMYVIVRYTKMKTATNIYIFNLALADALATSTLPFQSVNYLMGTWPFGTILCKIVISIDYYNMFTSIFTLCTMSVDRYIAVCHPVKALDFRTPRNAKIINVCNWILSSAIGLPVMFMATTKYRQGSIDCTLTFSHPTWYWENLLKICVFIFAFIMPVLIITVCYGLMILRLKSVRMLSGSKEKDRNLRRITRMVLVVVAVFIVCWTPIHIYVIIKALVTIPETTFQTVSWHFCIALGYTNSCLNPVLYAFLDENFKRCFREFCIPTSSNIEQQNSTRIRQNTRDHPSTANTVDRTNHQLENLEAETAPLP

Row | Structure (SMILES) | IC50 [1] [nM] | IC50 [2] [nM] | Ki [1] [nM]
1 | CCOC(=O)CN(Cc1ccccc1)C[C@H](O)CN1CN(c2ccc(F)cc2)C2(CCN(Cc3cc(C(F)(F)F)cc(C(F)(F)F)c3)CC2)C1=O [compound 670] | ≥ 10000 | ≥ 10000 | –
2 | Cc1cccc2cccc(CN3CCC4(CC3)C(=O)N(C[C@H](O)CN3CC[C@@H](N(C)C)C3)CN4c3ccc(F)cc3)c12 [compound 708] | – | – | 490
3 | CCCCN(Cc1ccccc1)C[C@H](O)CN1CN(c2ccc(F)cc2)C2(CCN(Cc3c(C)c(C)c(C)c(C)c3C)CC2)C1=O [Compound #280, 3-[3-(Benzyl-butyl-amino)-2-(S)-hydroxy-propyl]-1-(4-fluoro-phenyl)-8-pentamethylphenylmethyl-1,3,8-triaza-spiro[4.5]decan-4-one] | 2520 | 1080 | –
4 | Cc1cccc2cccc(CN3CCC4(CC3)C(=O)N(C[C@@H](O)CO)CN4c3ccc(F)cc3)c12 [compound 554] | > 10000 | 9470 | –
5 | O=C1N(C[C@@H](O)CNCc2ccccc2Br)CN(c2ccc(F)cc2)C12CCN(CC1CCCCCCC1)CC2 [Compound #44] | 1130 | 160 | –
6 | COc1ccc(CNC[C@H](O)CN2CN(c3ccc(F)cc3)C3(CCN(C4Cc5cccc6cccc4c56)CC3)C2=O)cc1OC (mixture of isomers) [compound 307] | 750 | 210 | –
7 | O=C1N(C[C@H](O)CNCCc2cc3ccc(F)cc3[nH]2)CN(c2ccccc2)C12CCN(CCc1ccccc1-c1cccs1)CC2 [compound 142] | 104 | – | –
8 | Cc1cccc2cccc(CN3CCC4(CC3)C(=O)N(C[C@@H](O)CNCCN3CCOCC3)CN4c3ccc(F)cc3)c12 [compound 396] | > 10000 | 810 | –
9 | O=C1N(C[C@@H](O)CNCCc2ccc3c(c2)OCO3)CN(c2ccc(F)cc2)C12CCN(Cc1ccc3ccccc3c1)CC2 [compound 262] | 850 | – | –
10 | Cc1cccc2cccc(CN3CCC4(CC3)C(=O)N(C[C@H](O)CNc3ccncc3)CN4c3ccc(F)cc3)c12 [compound 393] | > 10000 | 1040 | –
11 | O=C1N(C[C@@H](O)CNCc2ccc(C(F)(F)F)cc2)CN(c2ccc(F)cc2)C12CCN(CC1CCCCCCC1)CC2 [Compound #29] | 5410 | 410 | –
12 | CN(C)CCN(Cc1ccccc1)C[C@H](O)CN1CN(c2ccc(F)cc2)C2(CCN(Cc3c(Cl)cccc3C(F)(F)F)CC2)C1=O [compound 459] | > 10000 | 3210 | –
13 | COc1ccc(CCN(C)C[C@@H](O)CN2CN(c3ccc(F)cc3)C3(CCN(Cc4cccc5cccc(C)c45)CC3)C2=O)cc1OC [compound 391] | > 10000 | 2180 | –
14 | COc1cc(CCNC[C@@H](O)CN2CN(c3ccc(F)cc3)C3(CCN(Cc4ccc(Cl)cc4)CC3)C2=O)c([N+](=O)[O-])cc1OC [compound 269] | 2490 | – | –
15 | O=C1N(C[C@@H](O)CN2CCc3ccccc3C2)CN(c2ccc(F)cc2)C12CCN(CC1CCCCCCC1)CC2 [Compound #72] | 1840 | 790 | –
16 | O=C1N(C[C@@H](O)CN(CCc2ccccc2)Cc2ccccc2)CN(c2ccc(F)cc2)C12CCN(CC1CCCCCCC1)CC2 [compound 65] | 580 | 510 | –
17 | CNCCNC[C@@H](O)CN1CN(c2ccc(F)cc2)C2(CCN(Cc3cccc4cccc(C)c34)CC2)C1=O [compound 661] | – | – | 800
18 | COc1ccc(CCN(C)C[C@H](O)CN2CN(c3ccc(F)cc3)C3(CCN(Cc4ccc(Cl)cc4)CC3)C2=O)cc1OC [compound 270] | 410 | – | –
19 | O=C1N(C[C@@H](O)CNCCN2CCOCC2)CN(c2ccc(F)cc2)C12CCN(Cc1ccc3ccccc3c1)CC2 [compound 259] | 500 | – | –
20 | CNC[C@@H](O)CN1CN(c2ccc(F)cc2)C2(CCN(Cc3cccc4cccc(C)c34)CC2)C1=O [Compound #660, 1-(4-Fluoro-phenyl)-3-(2-(R)-hydroxy-3-methylamino-propyl)-8-(8-methyl-naphthalen-1-ylmethyl)-1,3,8-triaza-spiro[4.5]decan-4-one] | – | – | 870
21 | O=C1N(C[C@@H](O)CN2CCN(C(c3ccccc3)c3ccc(Cl)cc3)CC2)CN(c2ccc(F)cc2)C12CCN(C1Cc3cccc4cccc1c34)CC2 (mixture of isomers) [compound 337] | 550 | 250 | –
22 | COc1ccccc1CNC[C@H](O)CN1CN(c2ccc(F)cc2)C2(CCN(CC3CCCCCCC3)CC2)C1=O [compound 14] | 1200 | 400 | –
23 | CSc1cccc(C(=O)N(Cc2ccc(C)cc2)C[C@H](O)CN2CN(c3ccc(F)cc3)C3(CCN(CC4CCCCCCC4)CC3)C2=O)n1 [compound 455] | 5160 | 380 | –
24 | COc1ccc(CCN(C)C[C@H](O)CN2CN(c3ccc(F)cc3)C3(CCN(Cc4cc(C(F)(F)F)cc(C(F)(F)F)c4)CC3)C2=O)cc1OC [compound 673] | ≥ 10000 | ≥ 10000 | –
25 | O=C1N(C[C@@H](O)CNCc2ccc([N+](=O)[O-])cc2)CN(c2ccc(F)cc2)C12CCN(CC1CCCCCCC1)CC2 [compound 23] | 9200 | 490 | –

Row | Structure (SMILES) | IC50 [1] [nM] | IC50 [2] [nM] | Ki [1] [nM]
26 | COc1cc(CNC[C@H](O)CN2CN(c3ccc(F)cc3)C3(CCN(CC4CCCCCCC4)CC3)C2=O)cc(OC)c1OC [Compound #43] | 540 | 320 | –
27 | COc1cc(CNC[C@H](O)CN2CN(c3ccc(F)cc3)C3(CCN(C4Cc5cccc6cccc4c56)CC3)C2=O)cc(OC)c1 (mixture of isomers) [compound 324] | 110 | 230 | –
28 | O=C1N(C[C@@H](O)CN2CCN(c3cccc(C(F)(F)F)c3)CC2)CN(c2ccc(F)cc2)C12CCN(C1Cc3cccc4cccc1c34)CC2 (mixture of isomers) [compound 333] | 240 | 390 | –
29 | O=C(O)c1ccc(CNC[C@H](O)CN2CN(c3ccc(F)cc3)C3(CCN(CC4CCCCCCC4)CC3)C2=O)cc1 [compound 452] | 570 | 1520 | –
30 | COc1cc(OC)c(CNC[C@H](O)CN2CN(c3ccc(F)cc3)C3(CCN(C4Cc5cccc6cccc4c56)CC3)C2=O)c(OC)c1 (mixture of isomers) [compound 367] | 1860 | 360 | –
31 | O=C1N(C[C@@H](O)CNCc2cccnc2)CN(c2ccc(F)cc2)C12CCN(Cc1cc(C(F)(F)F)cc(C(F)(F)F)c1)CC2 [compound 609] | ≥ 10000 | ≥ 10000 | –
32 | Cc1cccc2cccc(CN3CCC4(CC3)C(=O)N(C[C@H](O)CN(C)C)CN4c3ccc(F)cc3)c12 [Compound #441, 3-(3-Dimethylamino-2-(R)-hydroxy-propyl)-1-(4-fluoro-phenyl)-8-(8-methyl-naphthalen-1-ylmethyl)-1,3,8-triaza-spiro[4.5]decan-4-one] | > 10000 | > 10000 | –
33 | O=C1N(C[C@H](O)CNCCc2ccc3c(c2)OCO3)CN(c2ccc(F)cc2)C12CCN(Cc1ccc(Cl)cc1)CC2 [compound 268] | 950 | – | –
34 | O=C1N(C[C@@H](O)CNCc2cccc(C(F)(F)F)c2)CN(c2ccc(F)cc2)C12CCN(CC1CCCCCCC1)CC2 [Compound #33] | > 10000 | 1160 | –
35 | CCN(CC)C(=O)C1CCCN(C[C@H](O)CN2CN(c3ccc(F)cc3)C3(CCN(Cc4cc(C(F)(F)F)cc(C(F)(F)F)c4)CC3)C2=O)C1 (stereo partly drawn) [compound 686] | ≥ 10000 | 2520 | –
36 | O=C1N(C[C@@H](O)CNc2ccncc2)CN(c2ccc(F)cc2)C12CCN(Cc1cc(C(F)(F)F)cc(C(F)(F)F)c1)CC2 [compound 608] | ≥ 10000 | ≥ 10000 | –
37 | O=C1N(C[C@@H](O)CN2C=CCC2)CN(c2ccc(F)cc2)C12CCN(CC1CCCCCCC1)CC2 [compound 70] | 630 | – | –
38 | CC(c1ccccc1)N(Cc1ccccc1)C[C@H](O)CN1CN(c2ccc(F)cc2)C2(CCN(Cc3cc(C(F)(F)F)cc(C(F)(F)F)c3)CC2)C1=O (stereo partly drawn) [compound 672] | ≥ 10000 | ≥ 10000 | –
39 | COc1ccc(CNC[C@@H](O)CN2CN(c3ccc(F)cc3)C3(CCN(Cc4cccc5cccc(C)c45)CC3)C2=O)cc1 [compound 392] | > 10000 | 1390 | –
40 | O=C1N(C[C@@H](O)CN2CCN(c3cccc(C(F)(F)F)c3)CC2)CN(c2ccc(F)cc2)C12CCN(Cc1cc(C(F)(F)F)cc(C(F)(F)F)c1)CC2 [compound 683] | ≥ 10000 | ≥ 10000 | –
41 | CCCCN(Cc1ccccc1)C[C@H](O)CN1CN(c2ccc(F)cc2)C2(CCN(Cc3c(Cl)cccc3C(F)(F)F)CC2)C1=O [Compound #456, 3-[3-(Benzyl-butyl-amino)-2-(S)-hydroxy-propyl]-8-(2-chloro-6-trifluoromethyl-benzyl)-1-(4-fluoro-phenyl)-1,3,8-triaza-spiro[4.5]decan-4-one] | > 10000 | > 10000 | –
42 | O=C1N(C[C@@H](O)CN(Cc2ccccc2)C[C@@H]2CCCCC[C@@H]2O)CN(c2ccc(F)cc2)C12CCN(CC1CCCCCCC1)CC2 [compound 291] | 4560 | 570 | –
43 | O=C1N(C[C@@H](O)CNCc2ccc(Br)cc2)CN(c2ccc(F)cc2)C12CCN(CC1CCCCCCC1)CC2 [compound 15] | 850 | 330 | –
44 | COC(=O)C(N)CSC[C@H](O)CN1CN(c2ccc(F)cc2)C2(CCN(CC3CCCCCCC3)CC2)C1=O (stereo partly drawn) [compound 460] | 900 | 830 | –
45 | CN(C)c1ccc(CNC[C@@H](O)CN2CN(c3ccccc3)C3(CCN(CCc4ccccc4-c4cccs4)CC3)C2=O)cc1 [compound 139] | 103 | – | –
46 | O=C1N(C[C@@H](O)CN(CCc2ccccc2)Cc2ccccc2)CN(c2ccccc2)C12CCN(CCc1ccccc1-c1cccs1)CC2 [compound 230] | 152 | – | –
47 | O=C1N(C[C@@H](O)CN(Cc2ccccc2)C[C@@H]2CCCC[C@@H]2O)CN(c2ccc(F)cc2)C12CCN(CC1CCCCCCC1)CC2 [compound 290] | 930 | – | –
48 | Cc1cccc2cccc(CN3CCC4(CC3)C(=O)N(C[C@H](O)CN3CCC(O)C3)CN4c3ccc(F)cc3)c12 (stereo partly drawn) [compound 712] | – | – | 1950
49 | COc1ccc(CCN(C)C[C@H](O)CN2CN(c3ccc(F)cc3)C3(CCN(Cc4ccc5ccccc5c4)CC3)C2=O)cc1OC [compound 263] | 590 | – | –
50 | COc1ccc(CCNC[C@@H](O)CN2CN(c3ccccc3)C3(CCN(CCc4ccccc4-c4cccs4)CC3)C2=O)cc1 [compound 145] | 104 | – | –
